Measurements: patent publication US9739784B2, “Giant obscurins and uses thereof in cancer prognosis and therapy” (UNIVERSITY OF MARYLAND, BA, priority 2013, dated 2017)

Test system: obscurin-KD MCF10A cells
Assay: Sensitivity of obscurin-KD MCF10A cells to chemotherapeutic drugs (cell viability)
Type: cell-based, human
Conditions: compared to control cells
From the text: Moreover, loss of giant obscurins results in major cytoskeletal alterations leading to increased cell growth, motility and invasion. […] Thus, breast cancer cells may have different responses to cytoskeletal-targeting chemotherapies depending on the relative expression of giant obscurins.

COc1cc([C@@H]2c3cc4c(cc3[C@@H](O[C@@H]3O[C@@H]5CO[C@@H](C)O[C@H]5[C@H](O)[C@H]3O)[C@H]3COC(=O)[C@H]23)OCO4)cc(OC)c1O [etoposide]
sensitivity of obscurin-depleted MCF10A cells to the drug: reduced sensitivity

CC(=O)O[C@H]1C(=O)[C@@]2(C)[C@H]([C@H](OC(=O)c3ccccc3)[C@]3(O)C[C@H](OC(=O)[C@H](O)[C@@H](NC(=O)c4ccccc4)c4ccccc4)C(C)=C1C3(C)C)[C@]1(OC(C)=O)CO[C@@H]1C[C@@H]2O [paclitaxel]
sensitivity of obscurin-depleted MCF10A cells to the drug: reduced sensitivity
